Measured values as given in patent US12320799B2, “Methods of measuring signaling pathway activity for selection of therapeutic agents” (Celcuity Inc., priority 2017, dated 2025).

Legend:
Assay type in all cases: cell-based, human
[1] = tested on: FGFR signaling pathway; assay: CELx multiple pathway test, impedance biosensor cell adhesion, FGF/BGJ398 pair; settings: activator FGF
From the text: (§1) Biosensor and transducer: A 96-well impendence E-Plate (ACEA, San Diego, CA) was placed onto an xCELLigence RTCA MP Station impendence biosensor (ACEA, San Diego, CA). The biosensor measured simultaneously the impedance of every well. The change in impedance for a particular well is proportional to the number of cells and type of attachment the cells have with the impedance microplate. Changes in impedance indicate a response to perturbation of these small cell populations. Coatings: The 96-E-Plate were wells were coated with fibronectin and or collagen. Collagen is purchased from Advanced BioMatrix (Carlsbad, CA) and fibronectin from Sigma-Aldrich (St. Louis, MO). Tissue and cell samples: A total of 18 samples of human tumor cells from breast, lung, colon, ovarian, kidney, bladder cancer were studied. For each of these six different cancer types, tumor cell samples from three different patients were tested. Any biomarkers that are used to guide selection of targeted therapy are listed in Table 18 for each patient if they were present. Signaling Pathways activator agent and targeted therapeutic pairs: Eleven different signaling pathways were studied in each human tumor cell sample using […] signaling pathway activator agent and targeted therapeutic pairs. Each of the signaling pathway activator agent and targeted therapeutic pairs affect the same signaling pathway. Each of the signaling pathway activator agents is a well-characterized and specific agonist of its associated signaling pathway and each of the targeted therapeutic agents is a well-characterized and specific antagonist of the same associated signaling pathway. The signaling pathway activator agents and targeted therapeutics used to characterize the activity level of the associated signaling pathway are summarized in Table 16 below:
(§2) Other Reagents: Standard media antibiotics (e.g. penicillin, streptomycin) and other buffers were purchased and used as delivered from ATCC (Manassas, VA, USA) or Life Technologies (Grand Island, NY). Procedure: For each test of a patient cell sample with a pair of signaling pathway activator and targeted therapeutic agents, six wells were seeded with approximately 15,000 cells in 120 uL culture media. Twenty microliters of the targeted therapeutic agent were added to two wells of each patient's cells and 20 microliters of standard media were added to the other four wells for each patient 18 hours in advance of addition of the signaling pathway activator agent. Signaling pathway stimulation was initiated with the addition of 20 ul of the signaling pathway activator agent in the two wells that received a targeted therapeutic agent and in two additional wells for each patient's set of cells without the targeted therapeutic. The impedance recording of attachment and adhesion change was performed at 37° C., 5% C02. Data was recorded on a continuous basis throughout the test, where the data presented is from the initial baseline level of cell attachment compared to the subsequent effects following the targeted therapeutic agent and the signaling pathway activator agent additions on the 18 different patient samples. Results:
(§3) Table 17 presents the results, expressed as an output value, for each of the 167 tests performed using the methods described above. For each of the 18 patient samples, up to 11 different signaling pathways were tested. The output value represents the difference between the amount of cell adhesion change resulting from addition of the signaling pathway activator agent and the amount of cell adhesion change resulting from addition of the targeted therapeutic agent.

[2] = tested on: IGFR signaling pathway; assay: CELx multiple pathway test, impedance biosensor cell adhesion, IGF/Linsitinib pair; settings: activator IGF
From the text: as §1, §2, §3

[3] = tested on: HER3 signaling pathway; assay: CELx multiple pathway test, impedance biosensor cell adhesion, NRG1/Neratinib pair; settings: activator NRG1
From the text: as §1, §2, §3

[4] = tested on: EGFR signaling pathway; assay: CELx multiple pathway test, impedance biosensor cell adhesion, EGF/Neratinib pair; settings: activator EGF
From the text: as §1
as §2, with “samples.” for “samples. Results:”
as §3, with “For” for “Table 17 presents the results, expressed as an output value, for each of the 167 tests performed using the methods described above. For”

[5] = tested on: c-MET/HGF signaling pathway; assay: CELx multiple pathway test, impedance biosensor cell adhesion, HGF/SGX-523 pair; settings: activator HGF
From the text: as §1
as §2, with “samples.” for “samples. Results:”
as §3, with “For” for “Table 17 presents the results, expressed as an output value, for each of the 167 tests performed using the methods described above. For”

CCN1CCN(c2ccc(Nc3cc(N(C)C(=O)Nc4c(Cl)c(OC)cc(OC)c4Cl)ncn3)cc2)CC1 [BGJ398] was tested, and the output value ([1]; C2 breast tumor cells) was 14, the output value ([1]; C21 breast tumor cells) was 15 and the output value ([1]; C23 lung tumor cells) was 1. The output value ([1]; C24 lung tumor cells) was −6, the output value ([1]; C25 lung tumor cells) was 14 and the output value ([1]; C34 breast tumor cells) was 33. It also gave an output value ([1]; C54 ovarian tumor cells) of 65, an output value ([1]; C62 colorectal tumor cells) of 4 and an output value ([1]; C69 ovarian tumor cells) of −19. For the same compound, the output value ([1]; C71 colorectal tumor cells) was 43, the output value ([1]; C72 colorectal tumor cells) was −20 and the output value ([1]; C77 ovarian tumor cells) was 12. It also gave an output value ([1]; C81 bladder tumor cells) of 75, an output value ([1]; C82 bladder tumor cells) of −94 and an output value ([1]; C87 bladder tumor cells) of 8. It also gave an output value ([1]; C88 kidney tumor cells) of 251, an output value ([1]; C90 kidney tumor cells) of −47 and an output value ([1]; C92 kidney tumor cells) of 6.

C[C@]1(O)C[C@@H](c2nc(-c3ccc4ccc(-c5ccccc5)nc4c3)c3c(N)nccn32)C1 [Linsitinib] was tested, and the output value ([2]; C2 breast tumor cells) was 20, the output value ([2]; C21 breast tumor cells) was 69 and the output value ([2]; C23 lung tumor cells) was 32. The output value ([2]; C24 lung tumor cells) was −61, the output value ([2]; C25 lung tumor cells) was −44 and the output value ([2]; C34 breast tumor cells) was 34. For the same compound, the output value ([2]; C54 ovarian tumor cells) was −8, the output value ([2]; C62 colorectal tumor cells) was 6 and the output value ([2]; C69 ovarian tumor cells) was −111. The output value ([2]; C71 colorectal tumor cells) was −2, the output value ([2]; C72 colorectal tumor cells) was −22 and the output value ([2]; C77 ovarian tumor cells) was 56. For the same compound, the output value ([2]; C81 bladder tumor cells) was 351, the output value ([2]; C82 bladder tumor cells) was 21 and the output value ([2]; C87 bladder tumor cells) was 210. It also gave an output value ([2]; C88 kidney tumor cells) of 143, an output value ([2]; C90 kidney tumor cells) of −607 and an output value ([2]; C92 kidney tumor cells) of 73.

With CCOc1cc2ncc(C#N)c(Nc3ccc(OCc4ccccn4)c(Cl)c3)c2cc1NC(=O)/C=C/CN(C)C [Neratinib] the output value ([3]; C2 breast tumor cells) was −1, the output value ([3]; C21 breast tumor cells) was 234 and the output value ([3]; C23 lung tumor cells) was 373. It also gave an output value ([3]; C24 lung tumor cells) of 194, an output value ([3]; C25 lung tumor cells) of 116 and an output value ([3]; C34 breast tumor cells) of 4. It also gave an output value ([3]; C54 ovarian tumor cells) of 244, an output value ([3]; C62 colorectal tumor cells) of 2 and an output value ([3]; C69 ovarian tumor cells) of 178. It also gave an output value ([3]; C71 colorectal tumor cells) of 28, an output value ([3]; C72 colorectal tumor cells) of 5 and an output value ([3]; C77 ovarian tumor cells) of 128. It also gave an output value ([3]; C81 bladder tumor cells) of 13, an output value ([3]; C82 bladder tumor cells) of 31 and an output value ([3]; C87 bladder tumor cells) of 10. The output value ([3]; C88 kidney tumor cells) was 5, the output value ([3]; C90 kidney tumor cells) was −32 and the output value ([3]; C92 kidney tumor cells) was 36. The output value ([4]; C2 breast tumor cells) was −19, the output value ([4]; C21 breast tumor cells) was 503 and the output value ([4]; C23 lung tumor cells) was 298. The output value ([4]; C24 lung tumor cells) was 245, the output value ([4]; C25 lung tumor cells) was 209 and the output value ([4]; C34 breast tumor cells) was 247. It also gave an output value ([4]; C54 ovarian tumor cells) of 654, an output value ([4]; C62 colorectal tumor cells) of 28 and an output value ([4]; C69 ovarian tumor cells) of 614. It also gave an output value ([4]; C71 colorectal tumor cells) of 179, an output value ([4]; C72 colorectal tumor cells) of 5 and an output value ([4]; C77 ovarian tumor cells) of −78. For the same compound, the output value ([4]; C81 bladder tumor cells) was 344, the output value ([4]; C82 bladder tumor cells) was 345 and the output value ([4]; C87 bladder tumor cells) was 334. It also gave an output value ([4]; C88 kidney tumor cells) of −67, an output value ([4]; C90 kidney tumor cells) of 150 and an output value ([4]; C92 kidney tumor cells) of 290.

Cn1cc(-c2ccc3nnc(Sc4ccc5ncccc5c4)n3n2)cn1 [SGX-523] was tested, and the output value ([5]; C2 breast tumor cells) was 0, the output value ([5]; C21 breast tumor cells) was 222 and the output value ([5]; C23 lung tumor cells) was 469. The output value ([5]; C24 lung tumor cells) was 78, the output value ([5]; C25 lung tumor cells) was 132 and the output value ([5]; C34 breast tumor cells) was 6. For the same compound, the output value ([5]; C54 ovarian tumor cells) was 123, the output value ([5]; C62 colorectal tumor cells) was −6 and the output value ([5]; C69 ovarian tumor cells) was −27. It also gave an output value ([5]; C71 colorectal tumor cells) of 53, an output value ([5]; C72 colorectal tumor cells) of −110 and an output value ([5]; C77 ovarian tumor cells) of 227. It also gave an output value ([5]; C81 bladder tumor cells) of 419, an output value ([5]; C82 bladder tumor cells) of 41 and an output value ([5]; C87 bladder tumor cells) of 28. For the same compound, the output value ([5]; C88 kidney tumor cells) was −13, the output value ([5]; C90 kidney tumor cells) was 368 and the output value ([5]; C92 kidney tumor cells) was 154.
